Toxic doses and inconclusive results are not listed. Rule as the data show it: active = T/C of 150% or more; inactive = T/C below 125%.
Tested on: L1210 leukemia ip in BDF1 mice, survival T/C
Assay: NCI In Vivo Anticancer Drug Screen. Data for tumor model L1210 Leukemia (intraperitoneal) in B6D2F1 (BDF1) mice
Conditions: endpoint: mean survival time, higher = longer survival
How it was run: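 Antitumor effect is assessed in tumor-bearing animals. Survival in the compound arm is compared with a vehicle-dosed control arm and expressed as their quotient.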

[1] = dose: 100.0 mg/kg/injection, schedule: Q01DX005 (ip), vehicle: saline
[2] = dose: 200.0 mg/kg/injection, schedule: Q01DX005 (ip), vehicle: saline
[3] = dose: 100.0 mg/kg/injection, schedule: Q01DX001 (ip), vehicle: saline
[4] = dose: 200.0 mg/kg/injection, schedule: Q01DX001 (ip), vehicle: saline
[5] = dose: 400.0 mg/kg/injection, schedule: Q01DX001 (ip), vehicle: saline
[6] = dose: 75.0 mg/kg/injection, schedule: Q01DX001 (ip), vehicle: other
[7] = dose: 150.0 mg/kg/injection, schedule: Q01DX001 (ip), vehicle: other
[8] = dose: 37.5 mg/kg/injection, schedule: Q04DX003 (ip), vehicle: saline
[9] = dose: 50.0 mg/kg/injection, schedule: Q04DX003 (ip), vehicle: saline
[10] = dose: 100.0 mg/kg/injection, schedule: Q01DX001 (ip), vehicle: carboxymethylcellulose (CMC)
[11] = dose: 100.0 mg/kg/injection, schedule: Q04DX003 (ip), vehicle: saline
[12] = dose: 200.0 mg/kg/injection, schedule: Q01DX001 (ip), vehicle: carboxymethylcellulose (CMC)
[13] = dose: 200.0 mg/kg/injection, schedule: Q04DX003 (ip), vehicle: saline
[14] = dose: 400.0 mg/kg/injection, schedule: Q01DX001 (ip), vehicle: carboxymethylcellulose (CMC)
[15] = dose: 100.0 mg/kg/injection, schedule: Q04DX003 (ip), vehicle: Klucel (hydroxypropylcellulose) (HPC)
[16] = dose: 200.0 mg/kg/injection, schedule: Q04DX003 (ip), vehicle: Klucel (hydroxypropylcellulose) (HPC)
[17] = dose: 400.0 mg/kg/injection, schedule: Q04DX003 (ip), vehicle: Klucel (hydroxypropylcellulose) (HPC)
[18] = dose: 100.0 mg/kg/injection, schedule: Q01DX009 (ip), vehicle: saline with Tween-80
[19] = dose: 200.0 mg/kg/injection, schedule: Q01DX009 (ip), vehicle: saline with Tween-80
[20] = dose: 400.0 mg/kg/injection, schedule: Q01DX009 (ip), vehicle: saline with Tween-80

Measured: T/C

CCCC[C@H]1C(=O)O[C@H](C)[C@H](NC(=O)c2cccc(NC=O)c2O)C(=O)O[C@@H](C)[C@@H]1OC(=O)CC(C)C
inactive: dose: 0.5 mg/kg/injection, schedule: Q01DX001 (ip), vehicle: carboxymethylcellulose (CMC) 92 % of control | dose: 1.0 mg/kg/injection, schedule: Q01DX001 (ip), vehicle: carboxymethylcellulose (CMC) 101 % of control | dose: 2.0 mg/kg/injection, schedule: Q01DX001 (ip), vehicle: carboxymethylcellulose (CMC) 94 % of control

Nc1nc(SCc2ccc([N+](=O)[O-])cc2)c2nc(SCc3ccc([N+](=O)[O-])cc3)n(C3OC(CO)C(O)C3O)c2n1 (configuration not stated)
inactive: dose: 50.0 mg/kg/injection, schedule: Q01DX005 (ip), vehicle: saline 102 % of control | [1] 118 % of control | [2] 115 % of control

Cc1ccc(Cl)c(Br)c1
inactive: [3] 94 % of control | [4] 96 % of control | [5] 107 % of control

COc1cc(/C=N/NC(=O)C(=O)N/N=C/c2cc(OC)c(OC)c(OC)c2)cc(OC)c1OC
inactive: [6] 94 % of control | [7] 90 % of control | dose: 300.0 mg/kg/injection, schedule: Q01DX001 (ip), vehicle: other 89 % of control

CC12CCC(O1)C1C[N+](C)(CCC#N)CC12 (configuration not stated)
inactive: dose: 55.0 mg/kg/injection, schedule: Q01DX Z (ip), vehicle: saline 105 % of control | dose: 83.0 mg/kg/injection, schedule: Q01DX Z (ip), vehicle: saline 100 % of control | dose: 125.0 mg/kg/injection, schedule: Q01DX Z (ip), vehicle: saline 105 % of control

O=C(Nc1ccc(Cl)cc1)Nc1ncn[nH]1
inactive: dose: 75.0 mg/kg/injection, schedule: Q01DX001 (ip), vehicle: carboxymethylcellulose (CMC) 101 % of control | dose: 150.0 mg/kg/injection, schedule: Q01DX001 (ip), vehicle: carboxymethylcellulose (CMC) 97 % of control | dose: 300.0 mg/kg/injection, schedule: Q01DX001 (ip), vehicle: carboxymethylcellulose (CMC) 95 % of control

N#CCCCN=[N+]=[N-]
inactive: [8] 104 % of control

CCC1C(CC)N1S(=O)(=O)c1ccccc1 (configuration not stated)
inactive: dose: 100.0 mg/kg/injection, schedule: Q04DX002 (ip), vehicle: saline with Tween-80 100 % of control | dose: 200.0 mg/kg/injection, schedule: Q04DX002 (ip), vehicle: saline with Tween-80 103 % of control

CC[n+]1ccc(-c2ccc(S(=O)(=O)[O-])cc2)o1
inactive: [9] 108 % of control | [10] 96 % of control | [3] 105 % of control | [11] 93 % of control | [12] 96 % of control | [4] 105 % of control | [13] 105 % of control | [14] 100 % of control | [5] 105 % of control

O=C(NCCN1CCCCC1)C(O)(c1ccccc1)C1CCCCC1 (configuration not stated)
inactive: [6] 97 % of control | [7] 100 % of control

CCCCNC(=O)CSc1cc(Cl)c(Cl)cc1Cl
inactive: dose: 100.0 mg/kg/injection, schedule: Q01DX001 (ip), vehicle: saline with Tween-80 91 % of control | dose: 200.0 mg/kg/injection, schedule: Q01DX001 (ip), vehicle: saline with Tween-80 91 % of control | dose: 400.0 mg/kg/injection, schedule: Q01DX001 (ip), vehicle: saline with Tween-80 95 % of control

Cc1ccc(S(=O)(=O)Nc2cc(C)ccc2C)cc1
inactive: dose: 50.0 mg/kg/injection, schedule: Q01DX001 (ip), vehicle: carboxymethylcellulose (CMC) 93 % of control | [10] 95 % of control | [12] 104 % of control | [14] 88 % of control

CC(=O)OCC(C)(COC(C)=O)[N+](=O)[O-]
inactive: [15] 95 % of control | [16] 92 % of control | [17] 97 % of control

CN(C)c1ccc(N(C)C)nn1
inactive: [18] 104 % of control

Oc1ccc(C(=S)N2CCOCC2)cc1
inactive: [15] 97 % of control | [16] 97 % of control | [17] 98 % of control

Nc1ccc2scnc2c1
inactive: [18] 98 % of control | [19] 98 % of control | [20] 92 % of control

CC(=O)OCC1(C[N+](C)(C)C)CCC1
inactive: [3] 103 % of control | [11] 95 % of control | [4] 97 % of control | [13] 94 % of control | [5] 110 % of control

CC(=O)OC(C)(/N=N/C(C)(OC(C)=O)c1ccc(Cl)cc1)c1ccc(Cl)cc1 (configuration not stated)
inactive: dose: 25.0 mg/kg/injection, schedule: Q01DX009 (ip), vehicle: gum acacia 113 % of control | dose: 25.0 mg/kg/injection, schedule: Q04DX003 (ip), vehicle: gum acacia 98 % of control | dose: 50.0 mg/kg/injection, schedule: Q01DX009 (ip), vehicle: gum acacia 100 % of control | dose: 50.0 mg/kg/injection, schedule: Q04DX003 (ip), vehicle: gum acacia 98 % of control | dose: 100.0 mg/kg/injection, schedule: Q01DX001 (ip), vehicle: gum acacia 92 % of control | dose: 100.0 mg/kg/injection, schedule: Q01DX009 (ip), vehicle: gum acacia 94 % of control | dose: 100.0 mg/kg/injection, schedule: Q04DX003 (ip), vehicle: gum acacia 102 % of control

CCOC(=O)c1ccc(N=Cc2cnc3nc(NC(C)=O)[nH]c(=O)c3n2)cc1
inactive: dose: 100.0 mg/kg/injection, schedule: Q01DX001 (ip), vehicle: other 103 % of control | dose: 200.0 mg/kg/injection, schedule: Q01DX001 (ip), vehicle: other 96 % of control | dose: 400.0 mg/kg/injection, schedule: Q01DX001 (ip), vehicle: other 103 % of control

Cc1ccc2c(c1)N(CCCN(C)C)c1ccccc1S2
inactive: dose: 12.5 mg/kg/injection, schedule: Q04DX003 (ip), vehicle: saline 102 % of control | dose: 25.0 mg/kg/injection, schedule: Q04DX003 (ip), vehicle: saline 116 % of control

CC(C)(C#N)CCCCC(C)(C)C#N
inactive: dose: 50.0 mg/kg/injection, schedule: Q01DX001 (ip), vehicle: saline 105 % of control | [3] 108 % of control | [4] 102 % of control | [5] 100 % of control

O=c1[nH]c(=O)n(C2SC(CO)C(O)C2O)cc1F (configuration not stated)
inactive: dose: 18.8 mg/kg/injection, schedule: Q04DX003 (ip), vehicle: saline 102 % of control | [8] 94 % of control | [9] 94 % of control | [1] 97 % of control | [2] 95 % of control

Clc1ccc(C2c3ccccc3C[n+]3ccccc32)cc1 (configuration not stated)
inactive: dose: 6.25 mg/kg/injection, schedule: Q01DX009 (ip), vehicle: Klucel (hydroxypropylcellulose) (HPC) 102 % of control | dose: 12.5 mg/kg/injection, schedule: Q01DX009 (ip), vehicle: Klucel (hydroxypropylcellulose) (HPC) 104 % of control | dose: 25.0 mg/kg/injection, schedule: Q01DX009 (ip), vehicle: Klucel (hydroxypropylcellulose) (HPC) 109 % of control | dose: 35.0 mg/kg/injection, schedule: Q01DX009 (ip), vehicle: Klucel (hydroxypropylcellulose) (HPC) 112 % of control

O=C(COc1ccc(Cl)c(Cl)c1)Nc1ccc[n+](Cc2cc(Cl)ccc2S(=O)(=O)F)c1
inactive: [3] 97 % of control | [4] 105 % of control | [5] 94 % of control

CC(=O)C(C)(CCC(=O)NC(C)(C)C)CCC(=O)NC(C)(C)C
inactive: [18] 94 % of control | dose: 100.0 mg/kg/injection, schedule: Q04DX003 (ip), vehicle: saline with Tween-80 95 % of control | [19] 100 % of control | dose: 200.0 mg/kg/injection, schedule: Q04DX003 (ip), vehicle: saline with Tween-80 95 % of control | [20] 93 % of control | dose: 400.0 mg/kg/injection, schedule: Q04DX003 (ip), vehicle: saline with Tween-80 93 % of control

Nc1nc(=O)[nH]c(N)c1N
inactive: [9] 91 % of control | [3] 98 % of control | [11] 91 % of control | [4] 114 % of control | [13] 88 % of control

O=C1CCCc2c1cc(C1CCCC1)c1ccccc21
inactive: [10] 92 % of control | [12] 95 % of control | [14] 98 % of control

COCC(COC)CC1CO1 (configuration not stated)
inactive: dose: 50.0 mg/kg/injection, schedule: Q01DX009 (ip), vehicle: saline with Tween-80 96 % of control | [18] 100 % of control | [19] 96 % of control

O=C1OC(CO)C(OC2OC(CO)C(O)C(O)C2O)C(O)C1O (configuration not stated)
inactive: dose: 100.0 mg/kg/injection, schedule: Q01DX009 (ip), vehicle: saline 97 % of control | dose: 200.0 mg/kg/injection, schedule: Q01DX009 (ip), vehicle: saline 98 % of control | dose: 400.0 mg/kg/injection, schedule: Q01DX009 (ip), vehicle: saline 97 % of control

— PubChem BioAssay AID248 (DTP/NCI, 2004)
